{"source": "patent US20080175902A1", "about": "“Methods for slowing the progression of multiple sclerosis” (University of Plymouth, priority 2006, published 2008)", "key": {"[1]": {"system": "patients with MS", "settings": "4 week period, oral; cited from earlier work"}, "[2]": {"system": "patients with multiple sclerosis", "test": "Category rating scales, 52 week follow up", "assay_type": "in vivo, human", "settings": "category rating scale, 52 week follow up study", "from_the_text": "(§1) In order to reduce the potential for unmasking bias from treatment side effects, two study personnel were used at each centre. A treating physician monitored the dosage, side effects, and patient wellbeing, while an assessor (usually a physiotherapist) measured the Ashworth score, timed 10 metre walk, and Rivermead Mobility Index (RMI). […] Assessors remained blinded to any discussion of dosage or side effects, and when evaluating patients' spasticity, were instructed not to have access to their assessment scores from previous visits. Self completion booklets containing the General Health Questionnaire-30 (GHQ-30), category rating scales (asking patients to assess any change in their symptoms at that point in the study compared with how they were before they started medication, and measuring irritability, depression, tiredness, muscle stiffness, tremor, pain, sleep, muscle spasms, and energy levels), the UK Neurological Disability Scale (UKNDS), and the Barthel Index (BI) were sent to participants just prior to week 27 and week 52. The Expanded Disability Status Scale (EDSS) was used at week 52.\nTimes taken to complete a 10 metre walk were analysed using the Kruskal-Wallis test, and non-parametric methods were used to produce confidence intervals for the median. The RMI, UKNDS, postal BI, and GHQ-30 were each analysed using non-parametric analysis of variance to compare the groups. EDSS scores were analysed using Fisher's exact test. Category rating scales were analysed using contingency table analysis. Comparison was made between patients choosing to continue on medication and those who chose to discontinue, by baseline Ashworth scores, RMI, EDSS, age, weight, ambulatory status, type of disease, sex, and use of urinary catheter. No adjustments were made for multiple comparisons."}, "[3]": {"system": "patients with multiple sclerosis with problematic spasticity", "test": "Ashworth score of spasticity, randomized placebo-controlled 15 week study", "assay_type": "in vivo, human", "settings": "baseline to 13 weeks follow-up"}, "[4]": {"system": "patients with multiple sclerosis", "test": "Timed 10 metre walk / ability to walk, 52 week follow up", "assay_type": "in vivo, human", "settings": "end of 52 week study", "from_the_text": "In order to reduce the potential for unmasking bias from treatment side effects, two study personnel were used at each centre. A treating physician monitored the dosage, side effects, and patient wellbeing, while an assessor (usually a physiotherapist) measured the Ashworth score, timed 10 metre walk, and Rivermead Mobility Index (RMI). […] Assessors remained blinded to any discussion of dosage or side effects, and when evaluating patients' spasticity, were instructed not to have access to their assessment scores from previous visits. […]\nTimes taken to complete a 10 metre walk were analysed using the Kruskal-Wallis test, and non-parametric methods were used to produce confidence intervals for the median. The RMI, UKNDS, postal BI, and GHQ-30 were each analysed using non-parametric analysis of variance to compare the groups. EDSS scores were analysed using Fisher's exact test. Category rating scales were analysed using contingency table analysis. […]"}, "[5]": {"system": "multiple sclerosis patients", "settings": "15 week trial; cited from earlier work"}, "[6]": {"system": "patients with multiple sclerosis", "test": "Ashworth score, 52 week follow up", "assay_type": "in vivo, human", "from_the_text": "In Example 4, the study described in Examples 1-3 above was continued to determine if long-term therapy with D9-TCH or cannabis plant extract would affect the progression of MS. At the end of week 15, patients were offered the opportunity to resume medication at the previously determined dose for a maximum of 52 weeks. If patients decided not to continue medication, the reasons for non-continuance were documented. Throughout the study, capsule compliance was checked at clinic visits by counting the number of capsules returned. Urine samples for cannabinoid analysis were collected at each clinic visit during the follow up phase in order to evaluate potential cannabis use in the placebo group.\nas §1\nAs set forth in FIG. 5, 95% Confidence intervals for differences in means (active minus placebo) of changes in total Ashworth score at each visit are shown. […] For these patients, their last Ashworth score (visit 10) was carried forward as their final measured response. […]"}, "[7]": {"system": "patients with multiple sclerosis", "test": "Patient assessment of treatment benefit at visit 8", "assay_type": "in vivo, human", "settings": "patient assessment at visit 8", "from_the_text": "At visit 8 in the study described in Examples 1 and 2, patients were asked uestions about whether treatment had improved pain, tremor, spasticity, or ymptoms. […] Overall, more patients perceived an improvement in spasticity and pain when taking the active treatments than when taking placebo. Difference in perception of improvement in tremor was not statistically significant and no treatment effect on bladder symptoms was identified. Although there was no stratification for these specific symptoms between groups, the groups were broadly balanced for these symptoms apart from bladder symptoms, where there were fewer patients with urinary symptoms in the group taking, delta-9-THC."}, "[8]": {"system": "patients with multiple sclerosis", "test": "Timed 10 meter walk, 15 week study", "assay_type": "in vivo, human", "experimental": "(§2) Secondary outcomes were also measured in the above-described study. Such secondary outcomes included the Rivermead mobility index (See e.g. Collen, F. M. et al., The Rivermead mobility index: a further development of the Rivermead motor assessment. Int. Disanil. Stud. 1991; 13:50 54) hereby incorporated by reference in its entirety, a timed 10 meter walk, four self completion questionnaires—the United Kingdom neurological disability score (See e.g. Sharrack, B., Hughes R. A., The Guy's neurological disability scale (GNDS): a new disability measure for multiple sclerosis. Mult. Sder. 1999; 5: 223-33), and a series of nine category-rating scales. For the category-rating scale assessment, patients were asked to assess how their symptoms had been over the previous week compared with how they were just before the study started. Categories included irritability, depression, tiredness, muscle stiffness, tremor, pain, sleep, muscle spasms, and amount of energy.\nWith respect to secondary outcome measures, 322 patients provided at least one baseline walk time. Of these, seven (1 cannabis extract, 3 delta-9-THC, 3 placebo) dropped out of the trial. Walk times were obtained from 278 patients at visit seven. In total, 20 patients were unable to walk (8 cannabis extract, 5 delta-9-THC, 7 placebo) and very large walk times were substituted for these individuals."}, "[9]": {"system": "patients with multiple sclerosis", "test": "Category-rating scales of symptoms, 15 week study", "assay_type": "in vivo, human", "settings": "category rating vs before study start", "experimental": "as §2\nCategory rating scales were used to assess whether patients felt their symptoms had improved while on treatment relative to before start of treatment. Overall, patients felt that symptoms of pain, sleep quality, spasms, and had improved while on active treatment."}}, "data": [{"smiles": "CCCCCc1cc(O)c2c(c1)OC(C)(C)[C@@H]1CCC(C)=C[C@@H]21", "note": "(relative stereo) [delta-9-THC, Delta-9-Tetrahydrocannabinol]", "values": [{"measurement": "changes in Ashworth scores", "setting": "[1]", "result": "no significant changes"}, {"measurement": "Depression: Deterioration, %", "setting": "[2]", "result": "17 (17) %"}, {"measurement": "Depression: Improvement, %", "setting": "[2]", "result": 26, "unit": "%"}, {"measurement": "Depression: Same, %", "setting": "[2]", "result": 57, "unit": "%"}, {"measurement": "Energy: Deterioration, %", "setting": "[2]", "result": 20, "unit": "%"}, {"measurement": "Energy: Improvement, %", "setting": "[2]", "result": 24, "unit": "%"}, {"measurement": "Energy: Same, %", "setting": "[2]", "result": 56, "unit": "%"}, {"measurement": "Irritability: Deterioration, %", "setting": "[2]", "result": "15 (15) %"}, {"measurement": "Irritability: Improvement, %", "setting": "[2]", "result": 30, "unit": "%"}, {"measurement": "Irritability: Same, %", "setting": "[2]", "result": 55, "unit": "%"}, {"measurement": "Pain: Deterioration, %", "setting": "[2]", "result": 16, "unit": "%"}, {"measurement": "Pain: Improvement, %", "setting": "[2]", "result": 28, "unit": "%"}, {"measurement": "Pain: Same, %", "setting": "[2]", "result": 56, "unit": "%"}, {"measurement": "Shaking: Deterioration, %", "setting": "[2]", "result": "19 (19) %"}, {"measurement": "Shaking: Improvement, %", "setting": "[2]", "result": 26, "unit": "%"}, {"measurement": "Shaking: Same, %", "setting": "[2]", "result": 55, "unit": "%"}, {"measurement": "Sleep: Deterioration, %", "setting": "[2]", "result": 12, "unit": "%"}, {"measurement": "Sleep: Improvement, %", "setting": "[2]", "result": 34, "unit": "%"}, {"measurement": "Sleep: Same, %", "setting": "[2]", "result": 54, "unit": "%"}, {"measurement": "Spasms: Deterioration, %", "setting": "[2]", "result": 25, "unit": "%"}, {"measurement": "Spasms: Improvement, %", "setting": "[2]", "result": 29, "unit": "%"}, {"measurement": "Spasms: Same, %", "setting": "[2]", "result": 46, "unit": "%"}, {"measurement": "Spasticity: Deterioration, %", "setting": "[2]", "result": 33, "unit": "%"}, {"measurement": "Spasticity: Improvement, %", "setting": "[2]", "result": 33, "unit": "%"}, {"measurement": "Spasticity: Same, %", "setting": "[2]", "result": 34, "unit": "%"}, {"measurement": "Tiredness: Deterioration, %", "setting": "[2]", "result": 21, "unit": "%"}, {"measurement": "Tiredness: Improvement, %", "setting": "[2]", "result": 25, "unit": "%"}, {"measurement": "Tiredness: Same, %", "setting": "[2]", "result": 54, "unit": "%"}, {"measurement": "Mean (SD) change in Ashworth score, lower-body muscle groups", "setting": "[3]", "result": "1.39 (5.21)"}, {"measurement": "Mean (SD) change in Ashworth score, upper-body muscle groups", "setting": "[3]", "result": "0.48 (4.70)"}, {"measurement": "Mean (SD) change in total Ashworth score (baseline minus follow-up)", "setting": "[3]; all muscle groups", "result": "1.86 (7.95)"}, {"measurement": "proportion of patients unable to walk at the end of the study who could walk at baseline", "setting": "[4]", "result": 6, "unit": "%"}, {"measurement": "slowing of progression of MS", "setting": "[5]", "result": "did not yield results indicating that cannabinoids including dronabinol slowed progression of MS"}, {"measurement": "Mean (SD) difference in Ashworth scores from baseline to end of study", "setting": "[6]; 52 week follow up", "result": "1.82 (8.12)"}, {"measurement": "improvement on the Ashworth scale from a baseline mean of around 22", "setting": "[6]; 52 week follow up", "result": "approximately 2 points"}, {"measurement": "effect on progression of MS (spasticity and disability)", "setting": "[6]; end of the 52 week treatment period", "result": "profound effects in slowing the progression of MS"}, {"measurement": "Bladder symptom improvement: No, % of patients", "setting": "[7]", "result": 59, "unit": "%"}, {"measurement": "Bladder symptom improvement: No, number of patients", "setting": "[7]", "result": 97}, {"measurement": "Bladder symptom improvement: Yes, % of patients", "setting": "[7]", "result": 40, "unit": "%"}, {"measurement": "Bladder symptom improvement: Yes, number of patients", "setting": "[7]", "result": 67}, {"measurement": "Pain improvement: No, % of patients", "setting": "[7]", "result": 50, "unit": "%"}, {"measurement": "Pain improvement: No, number of patients", "setting": "[7]", "result": 64}, {"measurement": "Pain improvement: Yes, % of patients", "setting": "[7]", "result": 50, "unit": "%"}, {"measurement": "Pain improvement: Yes, number of patients", "setting": "[7]", "result": 64}, {"measurement": "Spasticity improvement: No, % of patients", "setting": "[7]", "result": 40, "unit": "%"}, {"measurement": "Spasticity improvement: No, number of patients", "setting": "[7]", "result": 73}, {"measurement": "Spasticity improvement: Yes, % of patients", "setting": "[7]", "result": 60, "unit": "%"}, {"measurement": "Spasticity improvement: Yes, number of patients", "setting": "[7]", "result": 108}, {"measurement": "Tremor improvement: No, % of patients", "setting": "[7]", "result": 60, "unit": "%"}, {"measurement": "Tremor improvement: No, number of patients", "setting": "[7]", "result": 67}, {"measurement": "Tremor improvement: Yes, % of patients", "setting": "[7]", "result": 40, "unit": "%"}, {"measurement": "Tremor improvement: Yes, number of patients", "setting": "[7]", "result": 44}, {"measurement": "reduction of median time taken to walk 10 meters from baseline to follow-up", "setting": "[8]; baseline to visit 7", "result": 12, "unit": "%"}, {"measurement": "patients unable to walk (number)", "setting": "[8]; visit 7", "result": 5}, {"measurement": "Depression: Deterioration, % of patients", "setting": "[9]", "result": "(34%)"}, {"measurement": "Depression: Deterioration, number of patients", "setting": "[9]", "result": 42}, {"measurement": "Depression: Improvement, % of patients", "setting": "[9]", "result": "(29%)"}, {"measurement": "Depression: Improvement, number of patients", "setting": "[9]", "result": 36}, {"measurement": "Depression: Same, % of patients", "setting": "[9]", "result": "(38%)"}, {"measurement": "Depression: Same, number of patients", "setting": "[9]", "result": 47}, {"measurement": "Energy: Deterioration, % of patients", "setting": "[9]", "result": "(28%)"}, {"measurement": "Energy: Deterioration, number of patients", "setting": "[9]", "result": 49}, {"measurement": "Energy: Improvement, % of patients", "setting": "[9]", "result": "(35%)"}, {"measurement": "Energy: Improvement, number of patients", "setting": "[9]", "result": 61}, {"measurement": "Energy: Same, % of patients", "setting": "[9]", "result": "(36%)"}, {"measurement": "Energy: Same, number of patients", "setting": "[9]", "result": 63}, {"measurement": "Irritability: Deterioration, % of patients", "setting": "[9]", "result": "(29%)"}]}]}
